Results reported in US20090028925A1, “Novel Phosphinic Acid-Containing Thyromimetics” (priority 2005, published 2009).
pKi: −log10 of the molar value. Like-named read-outs stand apart in the source and are kept apart here.

Legend:
[1] = target: T1, human thyroid hormone receptors TRα1 (Homo sapiens, UniProt P10827); assay: Receptor binding to TRα1 (gel filtration and scintillation proximity assay, labeled T3); conditions: read-out: Ki TRα
T1 construct: made in house; host or cells: Sf9 insect cells (baculovirus)
T1 sequence (P10827 1-410 isoform P10827-2): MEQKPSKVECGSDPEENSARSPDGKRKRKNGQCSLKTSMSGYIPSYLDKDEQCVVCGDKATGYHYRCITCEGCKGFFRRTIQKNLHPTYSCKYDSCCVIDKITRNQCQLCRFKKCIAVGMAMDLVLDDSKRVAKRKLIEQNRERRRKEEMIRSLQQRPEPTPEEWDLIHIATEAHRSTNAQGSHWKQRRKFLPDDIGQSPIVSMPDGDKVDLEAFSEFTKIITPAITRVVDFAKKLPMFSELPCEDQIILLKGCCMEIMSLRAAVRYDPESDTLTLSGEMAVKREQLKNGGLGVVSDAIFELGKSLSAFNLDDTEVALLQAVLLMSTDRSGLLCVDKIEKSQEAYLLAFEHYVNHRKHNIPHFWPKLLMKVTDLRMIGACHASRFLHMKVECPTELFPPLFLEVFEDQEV
T1 sequence (P19793 1-462 partner): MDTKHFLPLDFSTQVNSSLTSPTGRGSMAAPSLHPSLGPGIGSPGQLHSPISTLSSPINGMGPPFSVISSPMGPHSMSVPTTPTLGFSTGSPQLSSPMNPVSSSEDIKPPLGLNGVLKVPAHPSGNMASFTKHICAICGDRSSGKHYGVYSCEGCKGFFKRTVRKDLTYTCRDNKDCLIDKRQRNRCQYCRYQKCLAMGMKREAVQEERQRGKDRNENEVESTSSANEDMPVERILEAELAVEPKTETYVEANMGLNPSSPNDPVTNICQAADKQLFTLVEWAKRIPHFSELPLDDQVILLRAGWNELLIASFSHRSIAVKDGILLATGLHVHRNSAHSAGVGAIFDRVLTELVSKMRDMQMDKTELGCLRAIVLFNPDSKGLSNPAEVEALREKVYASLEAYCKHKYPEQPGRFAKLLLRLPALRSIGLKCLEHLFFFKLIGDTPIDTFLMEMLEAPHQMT

[2] = target: T2, human thyroid hormone receptors TRβ1 (Homo sapiens, UniProt P10828); assay: Receptor binding to TRβ1 (gel filtration and scintillation proximity assay, labeled T3); conditions: read-out: Ki TRβ
T2 construct: made in house; host or cells: Sf9 insect cells (baculovirus)
T2 sequence (P10828 1-461): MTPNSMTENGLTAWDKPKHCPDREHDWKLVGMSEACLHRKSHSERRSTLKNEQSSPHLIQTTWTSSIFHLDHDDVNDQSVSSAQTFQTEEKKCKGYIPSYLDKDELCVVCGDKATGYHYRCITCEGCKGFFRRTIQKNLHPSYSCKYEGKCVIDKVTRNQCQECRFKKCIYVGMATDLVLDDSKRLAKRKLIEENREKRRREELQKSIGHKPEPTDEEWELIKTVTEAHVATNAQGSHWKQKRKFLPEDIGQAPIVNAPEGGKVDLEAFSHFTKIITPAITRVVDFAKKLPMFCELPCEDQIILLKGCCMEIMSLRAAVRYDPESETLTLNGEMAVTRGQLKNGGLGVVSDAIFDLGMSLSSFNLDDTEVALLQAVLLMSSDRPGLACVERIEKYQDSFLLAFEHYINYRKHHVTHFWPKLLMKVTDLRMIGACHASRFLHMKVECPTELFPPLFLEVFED
T2 sequence (P19793 1-462 partner): T1 sequence (P19793 1-462 partner)

[3] = Prodrug activation in rat liver microsomes; type: in vitro ADME
Description: (§1) The purpose of these studies was to determine the kinetics of activation of prodrugs of thyromimetics in microsomal preparations. Microsomes contain the P450 enzyme that is required for the activation of many of the prodrugs prepared. The Km, Vmax, and intrinsic clearance values determined are measures of prodrug affinity for the microsomal enzymes, the rate at which the prodrug is activated, and the catalytic efficiency with which the prodrug is activated, respectively.
(§2) Methods: Activation of prodrugs by dexamethasone treated rat hepatocyte microsomes. Microsomes were isolated by standard differential centrifugation methods from dexamethasone-treated rats. The treatment is to increase cytochrome P450-3A (CYP3A4) activity. Induction of CYP3A4 was confirmed by an increase in testosterone hydroxylation.
(§3) Various concentrations of HepDirect™ Compound 7 were incubated with rat hepatocytes microsomes. Compound 7 formation was analyzed by HPLC using UV-Vis detection. Kinetic parameters (Vmax and Km) were calculated from the transformed data and the intrinsic clearance calculated from the kinetic parameters.

[4] = tested on: CYP3A (cytochrome P450-3A (CYP3A4)); assay: Prodrug activation in rat liver microsomes; type: in vitro ADME; conditions: liver microsomes from dexamethasone-treated rats; dexamethasone treated rat microsomes, formation of Compound 7
Description: as §1, §2, §3

plasma cholesterol = assay: Cholesterol lowering in hypercholesterolemic rats; type: in vivo; conditions: for change in vivo at 0.2 mg/kg/day: Rattus norvegicus, read-out: % Cholesterol Lowering
[5] = Continuous infusion study in rats on a cholesterol-containing diet; type: in vivo; conditions: continuous infusion 1 mg/kg/day; for cholesterol lowering effects: day 7 and day 14; for cardiovascular parameters (heart rate, LV dP/dt, systolic and diastolic blood pressure): day 7 or day 14
Description: Screening for thyromimetic activity was performed in normal rats maintained on a cholesterol-containing diet. Compounds were administered by continuous infusion using an osmotic pump at 1 mg/kg/day.

[6] = ip, delivered i.p (0.2 mg/kg/d), percentage change from pre-dose cholesterol
[7] = po, delivered p.o. (0.2 mg/kg/d), percentage change from pre-dose cholesterol

| Compound | pKi ([1]; SPA data) | pKi ([2]; SPA data) | change in vivo at 0.2 mg/kg/day (plasma cholesterol; [6]) | change in vivo at 0.2 mg/kg/day (plasma cholesterol; [7]) | further results |
| --- | --- | --- | --- | --- | --- |
| Cc1cc(OC[P@]2(=O)OCC[C@H](c3ccc(Cl)cc3)O2)cc(C)c1Cc1ccc(O)c(C(C)C)c1 [Compound 13-6-cis, 2-[(3,5-dimethyl-4-(4′-hydroxy-3′-iso-propylbenzyl)phenoxy)methyl]-4-(4-chlorophenyl)-2-oxo-2λ^5-[1,3,2]-dioxaphosphonane] | 5.33 | 5.45 |  |  | Vmax ([3]; dexamethasone treated rat microsomes, formation of Compound 7): 598 pmol/min/mg; microsomal CLint ([3]; rat, liver microsomes from dexamethasone-treated rats, intrinsic clearance calculated from the kinetic parameters): 62 µL/min/mg; Km [4]: 10 µM |
| COP(=O)(O)COc1cc(C)c(Cc2ccc(O)c(C(C)C)c2)c(C)c1 [Compound 69, [3,5-dimethyl-4-(4′-hydroxy-3′-iso-propylbenzyl)phenoxy]methylphosphonic acid monomethyl ester] | 7.87 | 8.52 |  |  | change in vivo at 0.2 mg/kg/day (plasma cholesterol; po): -41.9%; cholesterol lowering effects [5]: demonstrated cholesterol lowering effects; cardiovascular parameters (heart rate, LV dP/dt, systolic and diastolic blood pressure) [5]: no changes in any of the cardiovascular parameters |
| Cc1cc(OCP(=O)(O)O)cc(C)c1Cc1ccc(O)c(C(=O)NCCc2ccccc2)c1 [Compound 37, [3,5-dimethyl-4-(4′-hydroxy-3′-phenethylcarbamoylbenzyl)phenoxy]methylphosphonic acid] | 6.53 | 7.64 | -0.4% |  |  |
| Cc1cc(CCCP(=O)(O)O)cc(C)c1Oc1ccc(O)c(C(C)C)c1 [Compound 29, 3-[3,5-dimethyl-4-(4′-hydroxy-3′-iso-propylphenoxy)phenyl]propylphosphonic acid] | 6.18 | 7.33 | -21.9% |  |  |
| CC(C)c1cc(Oc2c(Cl)cc(NCP(=O)(O)O)cc2Cl)ccc1O [Compound 22, [3,5-dichloro-4-(4′-hydroxy-3′-iso-propylphenoxy)phenylamino]methylphosphonic acid] | 6.73 | 7.51 | -44% | -16.5% |  |
| O=P(O)(O)Cc1cc(Cl)c(Oc2ccc(O)c(Cc3ccc(F)cc3)c2)c(Cl)c1 [Compound 11, 3,5-dichloro-4-[3′-(4-fluorobenzyl)-4′-hydroxyphenoxy]benzylphosphonic acid] | 6.92 | 7.52 | -36.4% | -5.1% |  |
| Cc1cc(OCP(=O)(O)O)c(C)c(C)c1Cc1ccc(O)c(C(C)C)c1 [Compound 61, [4-(4′-hydroxy-3′-isopropylbenzyl)-2,3,5-trimethylphenoxymethyl]phosphonic acid] | 7.37 | 8.85 |  | -33.7% |  |
| Cc1cc(S(=O)(=O)CP(=O)(O)O)cc(C)c1Cc1ccc(O)c(C(C)C)c1 [Compound 52, [3,5-dimethyl-4-(4′-Hydroxy-3′-iso-propylbenzyl)benzenesulfonyl]methylphosphonic acid] | < 5.70 | 7.32 | -18.8% |  |  |
| Cc1cc2[nH]c(P(=O)(O)O)cc2c(C)c1Oc1ccc(O)c(C(C)C)c1 [Compound 66] | 6.06 | 6.92 | -42.9% | -12.5% |  |
| CC(C)c1cc(Oc2c(I)cc(OCP(=O)(O)O)cc2I)ccc1O [Compound 8, [3,5-diiodo-4-(4′-hydroxy-3′-iso-propylphenoxy)phenoxy]methylphosphonic acid] |  |  | -24.3% | -20.6% | pKi [1]: 8.43; pKi [2]: 9.01 |
| Cc1cc(OCP(C)(=O)O)cc(C)c1Cc1ccc(O)c(C(C)C)c1 [Compound 70, [3,5-dimethyl-4-(4′-hydroxy-3′-iso-propylbenzyl)phenoxymethyl]methylphosphinic acid] | 6.74 | 8.27 |  | -32.8% | cholesterol lowering effects [5]: demonstrated cholesterol lowering effects; cardiovascular parameters (heart rate, LV dP/dt, systolic and diastolic blood pressure) [5]: no changes in any of the cardiovascular parameters |
| CCOP(=O)(O)COc1cc(C)c(Cc2ccc(O)c(C(C)C)c2)c(C)c1 [Compound 69-1, [3,5-dimethyl-4-(4′-hydroxy-3′-iso-propylbenzyl)phenoxy]methylphosphonic acid monoethyl ester] |  |  |  |  | cholesterol lowering effects [5]: demonstrated cholesterol lowering effects; cardiovascular parameters (heart rate, LV dP/dt, systolic and diastolic blood pressure) [5]: no changes in any of the cardiovascular parameters |
| CCc1cc(Cc2c(C)cc(OCP(=O)(O)O)cc2C)ccc1O [Compound 7-8, [3,5-dimethyl-4-[3′-ethyl-4′-hydroxybenzyl]phenoxy]methylphosphonic acid] |  |  | -28.6% |  | pKi [1]: 7.21; pKi [2]: 8.01 |
| [3,5-dimethyl-4-(4′-Hydroxy-3′-iso-propyl-phenyl)methoxymethyl]phenoxy]methylphosphonic acid [Compound 33] | 6.57 | 7.78 |  |  | % Cholesterol Lowering (plasma cholesterol; delivered i.p (0.2 mg/kg/d), percentage change from pre-dose cholesterol): −32.5% |
| Cc1cc(CCP(=O)(O)O)cc(C)c1Cc1ccc(O)c(Cc2ccccc2)c1 [Compound 42, 2-[3,5-dimethyl-4-[3′-benzyl-4′-hydroxy-benzyl]phenyl]-ethylphosphonic acid] | 6.10 | 7.79 | -28.8% |  |  |

The next lines start with results.

| pKi ([1]; SPA data) | pKi ([2]; SPA data) | Compound | change in vivo at 0.2 mg/kg/day (plasma cholesterol; [6]) | change in vivo at 0.2 mg/kg/day (plasma cholesterol; [7]) | further results |
| --- | --- | --- | --- | --- | --- |
| 6.95 | 8.54 | CCC(C)c1cc(Cc2c(C)cc(CCP(=O)(O)O)cc2C)ccc1O (stereo not shown) [Compound 24-3, 2-[4-(3′-sec-butyl-4′-hydroxy-benzyl)-3,5-dimethyl-phenyl]-ethylphosphonic acid] | -48.6% |  |  |
| 6.94 | 7.70 | CC(C)c1cc(Oc2c(Cl)cc(OCP(=O)(O)O)cc2Cl)ccc1O [Compound 8-2, [3,5-dichloro-4-(3′-iso-propyl-4′-hydroxyphenoxy)phenoxy]methylphosphonic acid] | -48% |  |  |
| 6.96 | 8.27 | CCC(CC)c1cc(Cc2c(C)cc(OCP(=O)(O)O)cc2C)ccc1O [Compound 7-9, [3,5-dimethyl-4-[3′-(1-ethylpropyl)-4′-hydroxybenzyl]phenoxy]methylphosphonic acid] | -63.2% | -38.4% |  |
| 6.37 | 7.28 | CC(C)c1cc(Cc2c(Cl)cc(OCP(=O)(O)O)cc2Cl)cc(Br)c1O [Compound 7-14, [3,5-dichloro-4-(5′-bromo-4′-hydroxy-3′-iso-propylbenzyl)phenoxy]methylphosphonic acid] | -32.9% |  |  |
| < 5.70 | 7.62 | Cc1cc(/C=C/P(=O)(O)O)cc(C)c1Cc1ccc(O)c(C(C)C)c1 [Compound 24-2, trans-2-[3,5-dimethyl-4-(4′-hydroxy-3′-iso-propylbenzyl)phenyl]vinylphosphonic acid] | -20.5% |  |  |
